Experimental data published in patent publication US9695119B2, “Methionine analogs and methods of using same” (Bioxiness Pharmaceuticals, Inc., priority 2008, dated 2017).
Like-named read-outs stand apart in the source and are kept apart here.

Tests used:
L929 cells = conditions: mouse, 60 min
Method: Cytotoxicity is assessed by a colorimetric assay system (Sagripanti J-L, Bonifacino A. Cytotoxicity of Liquid Disinfectants. Surgical Infections, 2000; 1(1): 3-14, the content of which is hereby incorporated by reference, particularly with respect to the experimental methods described therein), using 3′-(phenylamino-carbonyl)-3,4-tetrazo-lium-bis(4-methoxy-6-nitro) benzene sulfonic acid hydrate (XTT), ProCheck™ cell viability assay (Evaluation of a soluble tetrazolium/formazan assay for cell growth and drug sensitivity in culture using human and other tumor cell lines described by Scudiero D A, Shoemaker R A H, Paul K D, Monks A, Tierney S, Nofziger T H, Currens M J, Seniff D, Boyd M R. Cancer Res. 1988 Sep. 1; 48(17):4827-33, the content of which is hereby incorporated by reference, particularly with respect to the experimental methods described therein). Similar approaches for determining the cell viability are used by other investigators. Three cell types are used: […] (L929), primary human skin fibroblast and primary human keratinocyte cells cultured in Dulbecco Modified Eagle's Medium and Keratinocyte defined medium with corresponding growth factors plus antibiotics. Cells are trypsinized and counted under the microscope and seeded at 1000-to-2000 cells per well of a flat-bottom 96-well plate. Cells are allowed to grow overnight at 37° C. Tissue culture media is removed the following day and cells are rinsed with fresh media 1× and then left in 50 μL of tissue culture media. Test articles are prepared as 2-fold dilutions and 200 μL is added into each set of 4-wells (total volume per well is 250 μL). Cells are exposed to test articles for 60 min at room temperature. Immediately after the exposed time, test article from each well is removed and cells are fed with 250 μL of fresh media. Plates are incubated at 37° C. for 18-20 hr. The following day media is removed again and replaced with 100 μL/well of fresh media containing 10/100 μL XTT-reagent. Cells are incubated under growth conditions (5% CO2 at 37° C. humidified incubator), protected from light, until color development is achieved. Absorbance is read at 450 nm with reference wavelength at 750 nm using Molecular Device ThermoMax Plate reader, blanking the plate on the medium-only assay blank wells. Untreated cells receiving XTT reagents-only serve as positive cell proliferation control.
(§1) Results are expressed as percentage of cells surviving the treatment as compared to PBS.

E. coli (DH5-α) = experiment: Growth inhibition of E. coli by methionine analogs, 96-well plate, OD 550 nm over time; assay type: cell-based; conditions: E. coli, 12.5 mM, OD 550 nm
From the text: Comparative Minimum Bactericidal Concentration (MBC) results provide estimates of the susceptibility of various test articles against test organisms. A modification of the […] (NCCL) Standardized Protocol “Methods for dilution antimicrobial susceptibility tests for bacteria that grow aerobically” was used in these studies. Sterile Phosphate Buffer Saline (PBS) at pH 7.0 (vehicle) was used as the diluent. Use of such diluent allows for the determination of the intrinsic activity of our test articles in the absence of any interfering molecules. Specifically, each test article was diluted using 2-fold serial dilution in 96-well plate to give a range of concentrations from approximately 50 mM to 0.05 mM in a final volume of 0.1 mL. Each dilution was inoculated with 5×10^5 CFU/mL test bacteria. The initial optical density as absorbance of each well was read at OD 550 nm using ThermoMax plate reader. […] At various time intervals post-treatment, OD reading at 550 nm was recorded at various time intervals. FIG. 1A and Table 1 show time dependent growth inhibition capability of analogs on E. coli at 12.5 mM. For FIGS. 1A and 1B, the 96-well plate format was used to culture E. coli (DH5-α) cells in M9 minimal media supplemented with glucose (M9) or same media supplemented with a range of concentrations of various analogs. Experiments were carried out in duplicate.

[1] = system: CV-1 (African Green Monkey Kidney Cells) cells; conditions: 60 min, pH 7
Method: Preliminary studies of cytotoxicity were performed in a mammalian cell viability assay.
CV-1 cells were propagated in DMEM plus 8% FBS according to supplier's recommendations. CV-1 cells were seeded at 1.5×10^4 cells per well in 96-well plates and incubated overnight at 37° C. On the day of testing, growth medium was aspirated from each well, and 20 μl fresh medium was added per well. Test articles were diluted from 50 mM to 0.05 mM by 2-fold serial dilution using PBS at pH 7.0 for each test article. After which 80 μl of each dilution was added to each well for a total volume of 100 μl per well. Following 60 minutes exposure at 37° C., test articles were aspirated and replaced with fresh 100 μl tissue culture media and incubated for 24 hours at 37° C. Next day cell culture media was removed and cell viability was determined by addition of WST-8 (Dojindo, Japan) reagent and the absorption at 450 nm read spectrophotometrically. Orange-red formazan, which is produced by live cells, is a direct measure of cell viability in this assay.
as §1

[2] = target: E. coli Methionyl-tRNA synthetase (Escherichia coli, UniProt P00959); experiment: Enzymatic aminoacylation tRNA charging assay; assay type: biochemical
Sequence of E. coli Methionyl-tRNA synthetase (P00959 whole entry): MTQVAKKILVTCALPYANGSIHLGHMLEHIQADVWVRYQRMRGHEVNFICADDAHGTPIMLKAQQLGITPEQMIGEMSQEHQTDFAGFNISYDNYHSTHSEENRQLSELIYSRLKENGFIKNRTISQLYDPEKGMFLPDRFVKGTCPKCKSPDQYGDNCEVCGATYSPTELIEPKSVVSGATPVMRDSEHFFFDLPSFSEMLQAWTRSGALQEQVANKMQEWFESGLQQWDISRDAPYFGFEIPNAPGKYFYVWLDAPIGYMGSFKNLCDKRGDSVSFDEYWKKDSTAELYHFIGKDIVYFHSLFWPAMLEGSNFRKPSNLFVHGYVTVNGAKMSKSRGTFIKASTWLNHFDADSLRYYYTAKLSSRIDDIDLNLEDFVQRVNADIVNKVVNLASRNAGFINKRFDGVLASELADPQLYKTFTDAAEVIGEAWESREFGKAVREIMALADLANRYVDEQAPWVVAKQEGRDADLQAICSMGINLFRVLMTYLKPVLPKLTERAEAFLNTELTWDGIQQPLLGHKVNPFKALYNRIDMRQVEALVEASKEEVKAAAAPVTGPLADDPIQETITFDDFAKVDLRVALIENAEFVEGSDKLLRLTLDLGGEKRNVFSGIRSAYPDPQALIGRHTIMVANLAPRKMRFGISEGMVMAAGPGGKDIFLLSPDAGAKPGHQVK
Method: The assay system is as described by Hartman M et al, 2006 Enzymatic aminoacylation of tRNA with unnatural amino acids. PNAS. […] Each assay contains 40 mM Hepes (pH 7.4), 17 mM MgCl2, 45 mM KCl, 3.4 mM 2-mercaptoethanol, 6 mM ATP, 6% glycerol, 350 μM E. coli tRNA (Roche), 0.09 mg/mL BSA, 910 nM Methionyl-tRNA synthetase (MetRS) and amino acids in 100-1,000 μM range. […] Samples are transferred to ice bath to stop the reactions and then small aliquot (2 μL) samples are precipitated using 500 μL of 5% cold TCA onto Whatmann filter papers and vacuumed and then dried under a heat lamp. Radioactivity of each sample is measured as counts per minute (CPM), as compared to controls (without the analog). Results for the S enantiomer of I-A ((S)-2-amino-4-(methylthio)butane-1-sulfonic acid hydrochloride) are shown below in Table 11.

| SMILES | Percentage of Surviving L929 cells relative to control (L929 cells; 0.1 mM) [%] | Percentage of Surviving L929 cells relative to control (L929 cells; 0.2 mM) [%] | Percentage of Surviving L929 cells relative to control (L929 cells; 0.39 mM) [%] | Percentage of Surviving L929 cells relative to control (L929 cells; 0.78 mM) [%] | Percentage of Surviving L929 cells relative to control (L929 cells; 1.56 mM) [%] | Percentage of Surviving L929 cells relative to control (L929 cells; 3.13 mM) [%] | Percentage of Surviving L929 cells relative to control (L929 cells; 6.25 mM) [%] | Percentage of Surviving L929 cells relative to control (L929 cells; 12.5 mM) [%] | Percentage of Surviving L929 cells relative to control (L929 cells; 25 mM) [%] | Percentage of Surviving L929 cells relative to control (L929 cells; 50 mM) [%] | Absorbance (E. coli (DH5-α); well 12, time 0 hrs) | Absorbance (E. coli (DH5-α); well 12, time 1 hrs) | Absorbance (E. coli (DH5-α); well 12, time 2 hrs) | Absorbance (E. coli (DH5-α); well 12, time 3 hrs) | Absorbance (E. coli (DH5-α); well 12, time 3.75 hrs) | Absorbance (E. coli (DH5-α); well 12, time 5 hrs) | Absorbance (E. coli (DH5-α); well 12, time 6.5 hrs) | Absorbance (E. coli (DH5-α); well 12, time 7.25 hrs) | Absorbance (E. coli (DH5-α); well 12, time 23 hrs) | Percentage of Surviving CV-1 cells relative to PBS ([1]; 0.1 mM) [%] | also measured |
| --- | --- | --- | --- | --- | --- | --- | --- | --- | --- | --- | --- | --- | --- | --- | --- | --- | --- | --- | --- | --- | --- |
| CSCC[C@H](N)C(=O)NO.Cl [I-AA, (S)-2-amino-N-hydroxy-4-(methylthio)butanamide hydrochloride] | 100 | 94 | 89 | 87 | 87 | 87 | 85 | 86 | 85 | 82 | 0.084 | 0.113 | 0.130 | 0.133 | 0.109 | 0.118 | 0.110 | 0.100 | 0.130 | 97 | Percentage of Surviving CV-1 cells relative to PBS ([1]; 0.2 mM): 95%; Percentage of Surviving CV-1 cells relative to PBS ([1]; 0.39 mM): 96%; Percentage of Surviving CV-1 cells relative to PBS ([1]; 0.78 mM): 96%; Percentage of Surviving CV-1 cells relative to PBS ([1]; 1.56 mM): 100%; Percentage of Surviving CV-1 cells relative to PBS ([1]; 3.13 mM): 100%; Percentage of Surviving CV-1 cells relative to PBS ([1]; 6.25 mM): 99%; Percentage of Surviving CV-1 cells relative to PBS ([1]; 12.5 mM): 101%; Percentage of Surviving CV-1 cells relative to PBS ([1]; 25 mM): 99%; Percentage of Surviving CV-1 cells relative to PBS ([1]; 50 mM): 72% |
| CSCC[C@H](N)C(=O)O [Methionine] | 104 | 101 | 100 | 95 | 87 | 86 | 84 | 85 | 85 | 81 | 0.085 | 0.123 | 0.164 | 0.168 | 0.151 | 0.191 | 0.202 | 0.202 | 0.427 | 98 | Percentage of Surviving CV-1 cells relative to PBS ([1]; 0.2 mM): 96%; Percentage of Surviving CV-1 cells relative to PBS ([1]; 0.39 mM): 95%; Percentage of Surviving CV-1 cells relative to PBS ([1]; 0.78 mM): 96%; Percentage of Surviving CV-1 cells relative to PBS ([1]; 1.56 mM): 99%; Percentage of Surviving CV-1 cells relative to PBS ([1]; 3.13 mM): 100%; Percentage of Surviving CV-1 cells relative to PBS ([1]; 6.25 mM): 100%; Percentage of Surviving CV-1 cells relative to PBS ([1]; 12.5 mM): 99%; Percentage of Surviving CV-1 cells relative to PBS ([1]; 25 mM): 99%; Percentage of Surviving CV-1 cells relative to PBS ([1]; 50 mM): 66% |
| CSCC[C@H](N)CS(=O)(=O)O.Cl [I-A, (S)-2-amino-4-(methylthio)butane-1-sulfonic acid hydrochloride] | – | – | – | – | – | – | – | – | – | – | – | – | – | – | – | – | – | – | – | – | Radioactivity, Methionyl-tRNA synthetase tRNA charging ([2]; Experiment #1, I-A 0.04 mM, 1 Minute): 2,476 Counts Per Minute; Radioactivity, Methionyl-tRNA synthetase tRNA charging ([2]; Experiment #1, I-A 0.04 mM, 10 Minutes): 3,466 Counts Per Minute; Radioactivity, Methionyl-tRNA synthetase tRNA charging ([2]; Experiment #1, I-A 0.20 mM, 1 Minute): 2,333 Counts Per Minute; Radioactivity, Methionyl-tRNA synthetase tRNA charging ([2]; Experiment #1, I-A 0.20 mM, 10 Minutes): 3,147 Counts Per Minute; Radioactivity, Methionyl-tRNA synthetase tRNA charging ([2]; Experiment #1, I-A 1.00 mM, 1 Minute): 2,372 Counts Per Minute; Radioactivity, Methionyl-tRNA synthetase tRNA charging ([2]; Experiment #1, I-A 1.00 mM, 10 Minutes): 3,218 Counts Per Minute; Radioactivity, Methionyl-tRNA synthetase tRNA charging ([2]; Experiment #1, I-A 5.00 mM, 1 Minute): 2,007 Counts Per Minute; Radioactivity, Methionyl-tRNA synthetase tRNA charging ([2]; Experiment #1, I-A 5.00 mM, 10 Minutes): 2,891 Counts Per Minute; Radioactivity, Methionyl-tRNA synthetase tRNA charging ([2]; Experiment #2, I-A 0.25 mM, 10 Minutes): 1,701 Counts Per Minute; Radioactivity, Methionyl-tRNA synthetase tRNA charging ([2]; Experiment #2, I-A 1.25 mM, 10 Minutes): 1,907 Counts Per Minute; Radioactivity, Methionyl-tRNA synthetase tRNA charging ([2]; Experiment #2, I-A 5.00 mM, 10 Minutes): 1,575 Counts Per Minute; Radioactivity, Methionyl-tRNA synthetase tRNA charging ([2]; Experiment #2, I-A 12.5 mM, 10 Minutes): 1,672 Counts Per Minute |
